From BindingDB's records for doi:10.1021/cb100011u (Academia Sinica, 2010)

Assays:
[1] = molecular target: T1, Beta-hexosaminidase subunit beta (Homo sapiens, UniProt P07686); assay: Enzyme Inhibition Assay; conditions: pH 4.25; 30 °C
T1 sequence (P07686 whole entry): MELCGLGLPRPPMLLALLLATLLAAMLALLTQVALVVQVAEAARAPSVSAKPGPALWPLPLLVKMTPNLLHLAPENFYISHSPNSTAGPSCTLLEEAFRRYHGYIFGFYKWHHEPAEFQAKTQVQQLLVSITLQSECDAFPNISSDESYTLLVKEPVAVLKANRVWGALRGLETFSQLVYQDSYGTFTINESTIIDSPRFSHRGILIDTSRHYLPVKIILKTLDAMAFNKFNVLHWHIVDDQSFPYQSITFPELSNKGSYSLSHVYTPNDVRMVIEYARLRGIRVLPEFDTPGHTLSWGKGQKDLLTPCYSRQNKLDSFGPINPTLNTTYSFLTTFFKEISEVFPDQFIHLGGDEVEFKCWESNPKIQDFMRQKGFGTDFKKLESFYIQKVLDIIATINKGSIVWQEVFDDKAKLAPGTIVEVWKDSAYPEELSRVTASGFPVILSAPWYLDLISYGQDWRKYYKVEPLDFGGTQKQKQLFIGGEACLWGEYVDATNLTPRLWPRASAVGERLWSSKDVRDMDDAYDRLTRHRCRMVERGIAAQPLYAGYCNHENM
From the text: (§1) Enzyme inhibition activity assay using 4-methylumbelliferyl N-acetylglucosamine (MUG) as substrate.

Protein O-GlcNAcase = molecular target: T2, Protein O-GlcNAcase (Homo sapiens, UniProt O60502); assay: Enzyme Inhibition Assay; conditions: pH 4.25; 30 °C
T2 sequence (O60502 whole entry): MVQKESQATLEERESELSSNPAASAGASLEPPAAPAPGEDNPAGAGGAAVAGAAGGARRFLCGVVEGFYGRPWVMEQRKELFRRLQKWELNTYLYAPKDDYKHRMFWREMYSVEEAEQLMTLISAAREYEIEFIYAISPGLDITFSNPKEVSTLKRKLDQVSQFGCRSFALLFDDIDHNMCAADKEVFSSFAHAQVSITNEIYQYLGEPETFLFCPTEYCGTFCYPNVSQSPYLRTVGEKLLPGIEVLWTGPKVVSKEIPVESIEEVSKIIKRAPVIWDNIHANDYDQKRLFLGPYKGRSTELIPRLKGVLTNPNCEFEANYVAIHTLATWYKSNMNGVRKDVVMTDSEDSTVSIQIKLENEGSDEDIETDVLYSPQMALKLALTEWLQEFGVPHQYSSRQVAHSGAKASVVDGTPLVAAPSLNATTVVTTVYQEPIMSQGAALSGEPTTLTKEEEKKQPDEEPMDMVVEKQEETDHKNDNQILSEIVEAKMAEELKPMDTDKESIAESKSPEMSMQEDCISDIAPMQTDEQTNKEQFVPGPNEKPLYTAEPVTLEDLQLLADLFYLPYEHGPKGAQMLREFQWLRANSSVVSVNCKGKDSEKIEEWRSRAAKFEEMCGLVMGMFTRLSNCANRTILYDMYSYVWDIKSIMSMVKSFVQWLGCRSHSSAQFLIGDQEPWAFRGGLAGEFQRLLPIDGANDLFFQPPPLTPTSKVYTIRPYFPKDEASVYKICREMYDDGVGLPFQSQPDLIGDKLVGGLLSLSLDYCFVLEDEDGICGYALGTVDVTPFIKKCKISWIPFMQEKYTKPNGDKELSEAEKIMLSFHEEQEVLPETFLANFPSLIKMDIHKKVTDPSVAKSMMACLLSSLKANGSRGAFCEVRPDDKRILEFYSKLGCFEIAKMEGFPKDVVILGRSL
From the text: as §1

Question: How did the Ki [1] turn out when CC(=O)N[C@H]1CN[C@H](CO)[C@@H](O)[C@@H]1O was run?
Answer: 0.54 µM

Question: And the Ki (Protein O-GlcNAcase)?
Answer: 23.6 µM
